This is an account of results in paper PMC12123411, “Structural insight into the novel Thermus thermophilus SPOUT methyltransferase RlmR catalysing Um2552 formation in the 23S rRNA A-loop: a case of convergent evolution” (Nucleic Acids Research, 2025).

Experiment [1] addresses T1, RlmR (TTC1712) (Thermus thermophilus, UniProt Q72GY4).
T1 construct: gene TT_C1712; full-length ORF (about 260 residues), N-terminal His-tag, pET28, codon-optimised gene, expressed in E. coli Rosetta; homodimer; HB8 orthologue TTHA0275 differs by three residues
T1 sequence (Q72GY4 1-260): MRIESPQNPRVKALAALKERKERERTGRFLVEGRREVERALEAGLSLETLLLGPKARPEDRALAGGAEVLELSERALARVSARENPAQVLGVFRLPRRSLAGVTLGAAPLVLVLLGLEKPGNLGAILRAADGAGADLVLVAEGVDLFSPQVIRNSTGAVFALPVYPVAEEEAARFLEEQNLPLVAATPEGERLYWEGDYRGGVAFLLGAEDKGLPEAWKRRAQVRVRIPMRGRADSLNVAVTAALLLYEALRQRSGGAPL
Put plainly: X-ray crystal structure, […] Å. Particulars: ternary complex with U2552 59-mer A-loop RNA; SAH in bent conformation; SAM site at the trefoil knot; pH 4.5. In kind it is binding.

Experiment [2] deals with T1, RlmR (TTC1712). Put plainly: X-ray crystal structure (co-crystal with RNA and SAM); also radiolabelled methyl transfer assay. In kind it is binding. The conditions noted are these: co-substrate U2552 59-mer RNA; SAM kept in the dimer site without RNA, turned over to SAH in the RNA-bound site; assay pH 8.0, 5 mM MgCl2, 50 °C, labelled compound.
Experiment [3] has as its target RlmR (TTC1712), 23S rRNA Um2552 SPOUT methyltransferase of Thermus thermophilus HB27 (Thermus thermophilus HB27). Put plainly: SEC; gel filtration chromatography of purified RlmR (Supplementary Fig. S4).
For experiment [4] the target is unchanged. Put plainly: crystal structure; RlmR apoenzyme crystallised under oil at 20°C (100 mM Na citrate pH 4, 20% PEG6000, 1 M LiCl); asymmetric unit of two dimers; the same dimer holds the 59-mer RNA in the complexes with SAH or SAM.

For the compound `Nc1ncnc2c1ncn2[C@@H]1O[C@H](CSCC[C@H](N)C(=O)O)[C@@H](O)[C@H]1O` [SAH, S-adenosyl-homocysteine], at RlmR (TTC1712) [1], the “X-ray crystal structure, 1.9 Å” value is “crystal structure of RlmR in complex with the 59-mer RNA and SAH to a resolution”. Consider `C[S+](CC[C@H](N)C(=O)O)C[C@H]1O[C@@H](n2cnc3c(N)ncnc32)[C@H](O)[C@@H]1O` (stereo partly shown) [SAM, S-adenosylmethionine], for which, at RlmR (TTC1712) [2], the “X-ray crystal structure (co-crystal with RNA and SAM); also radiolabelled methyl” value is “in the other catalytic site of the dimer, not hosting the substrate, the co-substrate remains present as SAM”. In the case of “RlmR (TTC1712), 23S rRNA Um2552 SPOUT methyltransferase of Thermus thermophilus HB27 (enzyme)”, the stoichiometry N in experiment [3] and in experiment [4] was 2 in each case.
